Test results reported in patent US20240306670A1, “BERBERINE ALKALOIDS IN THE PREVENTION AND/OR TREATMENT OF INTESTINAL DISEASE” (priority 2017, published 2024).
Values joined by “and” are separate entries in the source; they are usually repeats but may differ in a detail not shown here. Equal entries are not always repeated. Where two headings read alike, the source gives them in different places.

Assays:
[1] = Feed palatability, feed and water consumption and bird productivity study (Example 2); assay type: in vivo, broiler chickens
Source text: A follow-up study to determine the feed palatability, feed and water consumption and bird productivity following incorporation of a single formulation of IRP001 hemisulfate salt (unmasked) when offered to broiler chickens in-feed or in-water. The study explores the optimal treatment regime in terms of treatment start date.
Phase 1: On receipt, two hundred and seventy (270) day-old commercial broiler chickens were allocated sequentially as they are received into sixteen (16) individual floor pens, each of 16 or 17 birds, on Day 0.
Phase 2: On receipt, the ninety (90) day-old commercial broiler chickens were allocated sequentially as they are received into four (4) individual floor pens, each of 22 or 23 birds, on Day 22.
Feed intake, water intake, weight gain and mortality were used as outcome parameters.
Individual daily feed intake and individual daily water intake data by pen and then by treatment group were calculated for Phases 1 and 2 (and for the entire trial for the birds in Group/Pen 2, 15 and 16 that continue through both Phases) using figures for total feed and water provided each day to each pen divided by the number of birds in each pen. Where errors in weighing, feeding/watering or recording (or other unexplained losses of feed and water) had occurred means were adjusted by using the mean value for the same pen on the 1-2 days either side of the apparent error. Similarly, group mean bodyweights were calculated for Phase 1 using total weight/total no. birds for Day 0 and individual weights from Days 7, 14, 21, 28, 35 and 42. Total (individual) feed consumed was calculated per treatment and feed conversion ratios per treatment calculated using the expression: total (individual) feed/total (individual) weight gain.
Individual daily feed intake and individual daily water intake were statistically compared by treatment within each phase and between Pens 2 and 15/16 over both phases using a linear model:—
and Tibco SPOTFIRE S+ 8.2 (2010). ‘Day’ was included in the model to allow for changes over time, ‘Pen’ as each treatment consisted of 2 pens while an interaction term ‘Treatment:Day’ was included to allow for treatment×time effects. Model suitability was confirmed by inspection of residual plots; in all instances the statistical model was appropriate.

[2] = system: Clostridium Perfringens (type A strain EHE-NE36) after Eimeria oocyst challenge; conditions: for Median Duodenal Lesion Score (0 absent to 4 severe) / Median Ilial Lesion Score (0 absent to 4 severe) / Median Jejunal Lesion Score (0 absent to 4 severe): 16 days
[3] = system: Eimeria species (mainly E. acervulina); conditions: in vivo
[4] = in vivo
[5] = Phase 1, IVP 1 g/L in-water Day 0-21, pens 3, 4
[6] = Phase 1, IVP 1 g/L in-water Day 1-21, pens 5, 6
[7] = Phase 1, IVP 1 g/L in-water Day 2-21, pens 7, 8
[8] = Phase 1, IVP 1 g/L in-water Day 3-21, pens 9, 10
[9] = Phase 1, IVP 1 g/L in-water Day 4-21, pens 11, 12
[10] = Phase 1, IVP 1 g/L in-water Day 5-21, pens 13, 14
[11] = Phase 1, IVP 1 g/L in-water Day 6-21 (42), pens 15, 16
[12] = Phase 2 (day-old chicks received Day 22), pens 19, 20, Day 25-42FEED (IVP in-feed)
[13] = Phase 2 summary, pens 15, 16, D6-21(42), IVP 1 g/L in-water, birds kept to day 42
[14] = NE challenge, IVP 0.1 g/L in-water, groups 7, 8
[15] = NE challenge, IVP 0.20 g/kg in-feed, group 11
[16] = NE challenge, IVP 1.0 g/L in-water, groups 9, 10
[17] = NE challenge, IVP 2.0 g/kg in-feed, group 12
[18] = Necrotic Enteritis, IVP feed 0.2 g/kg, group 11, isolator 9, 11 birds
[19] = Necrotic Enteritis, IVP feed 2 g/kg, group 12, isolator 3, 15 birds
[20] = Necrotic Enteritis, IVP water 0.1 g/L, 'Mean' line of groups 7 and 8, 28 birds
[21] = Necrotic Enteritis, IVP water 0.1 g/L, group 7, isolator 6, 13 birds
[22] = Necrotic Enteritis, IVP water 0.1 g/L, group 8, isolator 11, 15 birds
[23] = Necrotic Enteritis, IVP water 1.0 g/L, 'Mean' line of groups 9 and 10, 25 birds
[24] = Necrotic Enteritis, IVP water 1.0 g/L, group 9, isolator 2, 9 birds
[25] = Necrotic Enteritis, IVP water 1.0 g/L, group 10, isolator 8, 16 birds
[26] = Nil Challenge, IVP water 1.0 g/L, 'Mean' line of groups 3 and 4, 25 birds
[27] = Nil Challenge, IVP water 1.0 g/L, group 3, isolator 10, 10 birds
[28] = Nil Challenge, IVP water 1.0 g/L, group 4, isolator 4, 15 birds
[29] = Nil challenge, IVP 1.0 g/L in-water, groups 3, 4

For `COc1ccc2cc3[n+](cc2c1OC)CCc1cc2c(cc1-3)OCO2` [IRP001 chloride, berberine chloride], the FCR [1, 5] was 1.49, the Gain [1, 5] was 0.610 kg and the “Group mean bodyweight Day 0” value [1, 5] was 43.2. The “Group mean bodyweight Day 7” value [1, 5] was 118.1, the “Group mean bodyweight Day 14” value [1, 5] was 291.9 and the “Group mean bodyweight Day 22” value [1, 5] was 653.6. The “Total Feed” value [1, 5] was 0.908 kg, the FCR [1, 6] was 1.50 and the Gain [1, 6] was 0.678 kg. The “Group mean bodyweight Day 0” value [1, 6] was 42.4, the “Group mean bodyweight Day 7” value [1, 6] was 125.8 and the “Group mean bodyweight Day 14” value [1, 6] was 309.0. For the same compound, the “Group mean bodyweight Day 22” value [1, 6] was 720.7, the “Total Feed” value [1, 6] was 1.019 kg and the FCR [1, 7] was 1.45. The Gain [1, 7] was 0.675 kg, the “Group mean bodyweight Day 0” value [1, 7] was 44.6 and the “Group mean bodyweight Day 7” value [1, 7] was 132.0. The “Group mean bodyweight Day 14” value [1, 7] was 315.4, the “Group mean bodyweight Day 22” value [1, 7] was 719.4 and the “Total Feed” value [1, 7] was 0.977 kg. For the same compound, the FCR [1, 8] was 1.44, the Gain [1, 8] was 0.653 kg and the “Group mean bodyweight Day 0” value [1, 8] was 42.4. The “Group mean bodyweight Day 7” value [1, 8] was 118.6, the “Group mean bodyweight Day 14” value [1, 8] was 295.1 and the “Group mean bodyweight Day 22” value [1, 8] was 695.7. The “Total Feed” value [1, 8] was 0.939 kg, the FCR [1, 9] was 1.46 and the Gain [1, 9] was 0.716 kg. The “Group mean bodyweight Day 0” value [1, 9] was 41.8, the “Group mean bodyweight Day 7” value [1, 9] was 138.8 and the “Group mean bodyweight Day 14” value [1, 9] was 320.3. For the same compound, the “Group mean bodyweight Day 22” value [1, 9] was 758.2, the “Total Feed” value [1, 9] was 1.046 kg and the FCR [1, 10] was 1.48. The Gain [1, 10] was 0.680 kg, the “Group mean bodyweight Day 0” value [1, 10] was 44.3 and the “Group mean bodyweight Day 7” value [1, 10] was 135.3. The “Group mean bodyweight Day 14” value [1, 10] was 316.8, the “Group mean bodyweight Day 22” value [1, 10] was 724.7 and the “Total Feed” value [1, 10] was 1.010 kg. The FCR [1, 11] was 1.40, the Gain [1, 11] was 0.723 kg and the “Group mean bodyweight Day 0” value [1, 11] was 43.8. For the same compound, the “Group mean bodyweight Day 7” value [1, 11] was 139.1, the “Group mean bodyweight Day 14” value [1, 11] was 325.2 and the “Group mean bodyweight Day 22” value [1, 11] was 767.2. The “Total Feed” value [1, 11] was 1.016 kg, the “Bodyweight Day 28” value [1, 12] was 112.4 g and the “Bodyweight Day 35” value [1, 12] was 273.6 g. The “Bodyweight Day 42” value [1, 12] was 614.9 g, the FCR [1, 12] was 1.56 and the Feed [1, 12] was 0.783 kg. The Gain [1, 12] was 0.502 kg, the “Bodyweight Day 28” value [1, 13] was 1.16 kg and the “Bodyweight Day 35” value [1, 13] was 1.66 kg. For the same compound, the “Bodyweight Day 42” value [1, 13] was 2.39 kg, the FCR [1, 13] was 1.64 and the Feed [1, 13] was 3.841 kg. The Gain [1, 13] was 2.346 kg, the “Median Duodenal Lesion Score (0 absent to 4 severe)” value (“Median Duodenal Lesion Score” for short) [2, 14] was 4 and the “Median Ilial Lesion Score (0 absent to 4 severe)” value (shortened to “Median Ilial Lesion Score”) [2, 14] was 4. For the same compound, the “Median Jejunal Lesion Score (0 absent to 4 severe)” value (“Median Jejunal Lesion Score” for short) [2, 14] was 4, the “Median Duodenal Lesion Score” value [2, 15] was 4 and the “Median Ilial Lesion Score” value [2, 15] was 4. For the same compound, the “Median Jejunal Lesion Score” value [2, 15] was 4, the “Median Duodenal Lesion Score” value [2, 16] was 1 and the “Median Ilial Lesion Score” value [2, 16] was 1. For the same compound, the “Median Jejunal Lesion Score” value [2, 16] was 1, the “Median Duodenal Lesion Score” value [2, 17] was 1 and the “Median Ilial Lesion Score” value [2, 17] was 1. The “Median Jejunal Lesion Score” value [2, 17] was 1, the “Mortalities prior to autopsy” value [2, 18] was 9 and the Mortality % [2, 18] was 82%. For the same compound, the “Mortalities prior to autopsy” value [2, 19] was 2, the Mortality % [2, 19] was 13% and the “Mortalities prior to autopsy” value [2, 20] was 22. For the same compound, the Mortality % [2, 20] was 79%, the “Mortalities prior to autopsy” value [2, 21] was 12 and the Mortality % [2, 21] was 92%. For the same compound, the “Mortalities prior to autopsy” value [2, 22] was 10, the Mortality % [2, 22] was 67% and the “Mortalities prior to autopsy” value [2, 23] was 0. For the same compound, the Mortality % [2, 23] was 0%, the “Mortalities prior to autopsy” value [2, 24] was 0 and the Mortality % [2, 24] was 0%. The “Mortalities prior to autopsy” value [2, 25] was 0, the Mortality % [2, 25] was 0% and the “Mortalities prior to autopsy” value [2, 26] was 0. For the same compound, the Mortality % [2, 26] was 0%, the “Mortalities prior to autopsy” value [2, 27] was 0 and the Mortality % [2, 27] was 0%. The “Mortalities prior to autopsy” value [2, 28] was 0, the Mortality % [2, 28] was 0% and the “Median Duodenal Lesion Score” value [2, 29] was 0. The “Median Ilial Lesion Score” value [2, 29] was 0, the “Median Jejunal Lesion Score” value [2, 29] was 0 and the “FCR 0-14 corrected for mortality” value [3] was 1.120 and 1.125 and 1.103. The “FCR 0-21 corrected for mortality” value [3] was 1.285 and 1.256 and 1.250, the “FCR 0-28 corrected for mortality” value [3] was 1.470 and 1.467 and 1.486 and the “Feed per bird over days 0-14” value [3] was 485^B g/bird and 513^A g/bird and 512^A g/bird. The “Feed per bird over days 0-21” value [3] was 1186^B g/bird and 1227^AB g/bird and 1240^AB g/bird, the “Feed per bird over days 0-28” value [3] was 1957 g/bird and 2037 g/bird and 2049 g/bird and the “Feed per bird over days 0-42” value [3] was 4121 g/bird and 4247 g/bird and 4305 g/bird. For the same compound, the “Mean Weight Gain over days 0-7” value [3] was 113 gm and 121 gm and 119 gm, the “Mean Weight Gain over days 8-14” value [3] was 320^C gm and 334^A gm and 343^A gm and the “Mean Weight Gain over days 15-21” value [3] was 491^B gm and 517^A gm and 528^A gm. For the same compound, the “Mean Weight Gain over days 22-28” value [3] was 593 gm and 618 gm and 600 gm, the “Mean Weight Gain over days 29-42” value [3] was 1324 gm and 1341 gm and 1436 gm and the “Mean live weight at 0 days” value [3] was 41 gm. The “Mean live weight at 7 days” value [3] was 154 gm and 163 gm and 160 gm, the “Mean live weight at 14 days” value [3] was 432^B gm and 456^A gm and 461^A gm and the “Mean live weight at 21 days” value [3] was 973^C gm and 972^AB gm and 989^A gm. For the same compound, the “Mean live weight at 28 days” value [3] was 1517^B gm and 1590^A gm, the “Mean live weight at 42 days” value [3] was 2840^B gm and 2932^A gm and 3026^A gm and the “appearance of bird health” value [3] was “always appeared healthy”. For the same compound, the droppings [3] was “moist yellow-ish droppings”, the early growth rate [3] was “significantly lower than all other groups” and the growth rate [3] was “statistically similar to the control group”. For the same compound, the “lesion scores in duodenum, jejunum and total gut” value [3] was “highest lesion scores”, the “reduction of coccidial lesions” value [3] was “not by the lower dose rates” and the “total intestinal health scores (Tierlynck et al.)” value [3] was “approached significance”. For the same compound, the “translucency score upper intestine and undigested feed particles in rectum” value [3] was “reduced translucency score in the upper intestine and the presence of undigested feed particles in the rectum” and the “Cumulative Pathology and Enteritis scores” value [4] was “equal or lower than the control”.
